Reference: ChEMBL document CHEMBL3808371, “Design, synthesis and biological evaluation of diaziridinyl quinone isoxazole hybrids” (Eur J Med Chem, 2016)
Values after ≈ are worked out from the molar mass of the structure shown.

Key:
Candida albicans [1] = assay: Fungicidal activity against Candida albicans MTCC 3018 after 24 hrs by serial dilution method; type: functional; settings: MTCC 3018, 24 h
Escherichia coli = assay: Antimicrobial activity against Escherichia coli MTCC 739 after 24 hrs by well diffusion method; type: functional; settings: MTCC 739, 24 h
Candida albicans [2] = assay: Antimicrobial activity against Candida albicans MTCC 854 after 24 hrs by well diffusion method; type: functional; settings: MTCC 854, 24 h
Raoultella planticola [3] = assay: Antimicrobial activity against Klebsiella planticola MTCC 530 after 24 hrs by well diffusion method; type: functional; settings: MTCC 530, 24 h
Staphylococcus aureus [4] = assay: Antibiofilm activity against Staphylococcus aureus MTCC 96 after 24 hrs by crystal violet staining based assay; type: functional, organism-based; settings: MTCC 96, 24 h
[5] = Cytotoxicity against human PC3 cells after 72 hrs by XTT assay; type: functional, cell-based; settings: PC-3, 72 h
Candida albicans [6] = assay: Fungicidal activity against Candida albicans MTCC 3958 after 24 hrs by serial dilution method; type: functional; settings: MTCC 3958, 24 h
Candida albicans [7] = assay: Fungicidal activity against Candida albicans MTCC 183 after 24 hrs by serial dilution method; type: functional; settings: MTCC 183, 24 h
[Candida] aaseri [8] = Antimicrobial activity against Candida aaseri MTCC 1962 after 24 hrs by well diffusion method; type: functional; settings: Yamadazyma aaseri, MTCC 1962, 24 h
Candida albicans [9] = assay: Antimicrobial activity against Candida albicans MTCC 227 after 24 hrs by well diffusion method; type: functional; settings: MTCC 227, 24 h
Raoultella planticola [10] = assay: Antibiofilm activity against Klebsiella planticola MTCC 530 after 24 hrs by crystal violet staining based assay; type: functional, organism-based; settings: MTCC 530, 24 h
Pichia kudriavzevii [11] = assay: Antimicrobial activity against Candida krusei MTCC 3020 after 24 hrs by well diffusion method; type: functional; settings: MTCC 3020, 24 h
Staphylococcus aureus [12] = assay: Antibiofilm activity against Staphylococcus aureus MLS16 MTCC 2940 after 24 hrs by crystal violet staining based assay; type: functional, organism-based; settings: MLS16 MTCC 2940, 24 h
[Candida] aaseri [13] = Fungicidal activity against Candida aaseri MTCC 1962 after 24 hrs by serial dilution method; type: functional; settings: Yamadazyma aaseri, MTCC 1962, 24 h
Candida parapsilosis [14] = assay: Fungicidal activity against Candida parapsilosis MTCC 1744 after 24 hrs by serial dilution method; type: functional; settings: Lodderomyces parapsilosis, MTCC 1744, 24 h
Bacillus subtilis [15] = assay: Antibiofilm activity against Bacillus subtilis MTCC 121 after 24 hrs by crystal violet staining based assay; type: functional, organism-based; settings: MTCC 121, 24 h
Pichia kudriavzevii [16] = assay: Fungicidal activity against Candida krusei MTCC 3020 after 24 hrs by serial dilution method; type: functional; settings: MTCC 3020, 24 h
Micrococcus luteus [17] = assay: Antimicrobial activity against Micrococcus luteus MTCC 2470 after 24 hrs by well diffusion method; type: functional; settings: MTCC 2470, 24 h
Candida albicans [18] = assay: Fungicidal activity against Candida albicans MTCC 3017 after 24 hrs by serial dilution method; type: functional; settings: MTCC 3017, 24 h
Candida albicans [19] = assay: Fungicidal activity against Candida albicans MTCC 4748 after 24 hrs by serial dilution method; type: functional; settings: MTCC 4748, 24 h
Candida albicans [20] = assay: Fungicidal activity against Candida albicans MTCC 7315 after 24 hrs by serial dilution method; type: functional; settings: MTCC 7315, 24 h
Nakaseomyces glabratus [21] = assay: Fungicidal activity against Candida glabrata MTCC 3019 after 24 hrs by serial dilution method; type: functional; settings: MTCC 3019, 24 h
Nakaseomyces glabratus [22] = assay: Antimicrobial activity against Candida glabrata MTCC 3019 after 24 hrs by well diffusion method; type: functional; settings: MTCC 3019, 24 h
Candida albicans [23] = assay: Antimicrobial activity against Candida albicans MTCC 3018 after 24 hrs by well diffusion method; type: functional; settings: MTCC 3018, 24 h
Candida albicans [24] = assay: Antimicrobial activity against Candida albicans MTCC 7315 after 24 hrs by well diffusion method; type: functional; settings: MTCC 7315, 24 h
Candida albicans [25] = assay: Antimicrobial activity against Candida albicans MTCC 4748 after 24 hrs by well diffusion method; type: functional; settings: MTCC 4748, 24 h
Raoultella planticola [26] = assay: Bactericidal activity against Klebsiella planticola MTCC 530 after 24 hrs by serial dilution method; type: functional; settings: MTCC 530, 24 h
Candida albicans [27] = assay: Fungicidal activity against Candida albicans MTCC 227 after 24 hrs by serial dilution method; type: functional; settings: MTCC 227, 24 h
A549 [28] = assay: Cytotoxicity against human A549 cells after 72 hrs by XTT assay; type: functional, cell-based; settings: A549, 72 h
Candida parapsilosis [29] = assay: Antimicrobial activity against Candida parapsilosis MTCC 1744 after 24 hrs by well diffusion method; type: functional; settings: Lodderomyces parapsilosis, MTCC 1744, 24 h
Candida albicans [30] = assay: Fungicidal activity against Candida albicans MTCC 854 after 24 hrs by serial dilution method; type: functional; settings: MTCC 854, 24 h
Staphylococcus aureus [31] = assay: Bactericidal activity against Staphylococcus aureus MTCC 96 after 24 hrs by serial dilution method; type: functional; settings: MTCC 96, 24 h
Pichia sporocuriosa [32] = assay: Antimicrobial activity against Issatchenkia hanoiensis MTCC 4755 after 24 hrs by well diffusion method; type: functional; settings: MTCC 4755, 24 h
Candida albicans [33] = assay: Fungicidal activity against Candida albicans MTCC 1637 after 24 hrs by serial dilution method; type: functional; settings: MTCC 1637, 24 h
Pichia sporocuriosa [34] = assay: Fungicidal activity against Issatchenkia hanoiensis MTCC 4755 after 24 hrs by serial dilution method; type: functional; settings: MTCC 4755, 24 h
Bacillus subtilis [35] = assay: Bactericidal activity against Bacillus subtilis MTCC 121 after 24 hrs by serial dilution method; type: functional; settings: MTCC 121, 24 h
Staphylococcus aureus [36] = assay: Antimicrobial activity against Staphylococcus aureus MLS16 MTCC 2940 after 24 hrs by well diffusion method; type: functional; settings: MLS16 MTCC 2940, 24 h
Staphylococcus aureus [37] = assay: Antimicrobial activity against Staphylococcus aureus MTCC 96 after 24 hrs by well diffusion method; type: functional; settings: MTCC 96, 24 h
Pseudomonas aeruginosa = assay: Antimicrobial activity against Pseudomonas aeruginosa MTCC 2453 after 24 hrs by well diffusion method; type: functional; settings: MTCC 2453, 24 h
Candida albicans [38] = assay: Antimicrobial activity against Candida albicans MTCC 1637 after 24 hrs by well diffusion method; type: functional; settings: MTCC 1637, 24 h
Staphylococcus aureus [39] = assay: Bactericidal activity against Staphylococcus aureus MLS16 MTCC 2940 after 24 hrs by serial dilution method; type: functional; settings: MLS16 MTCC 2940, 24 h
Bacillus subtilis [40] = assay: Antimicrobial activity against Bacillus subtilis MTCC 121 after 24 hrs by well diffusion method; type: functional; settings: MTCC 121, 24 h
Micrococcus luteus [41] = assay: Antibiofilm activity against Micrococcus luteus MTCC 2470 after 24 hrs by crystal violet staining based assay; type: functional, organism-based; settings: MTCC 2470, 24 h
Candida albicans [42] = assay: Antimicrobial activity against Candida albicans MTCC 183 after 24 hrs by well diffusion method; type: functional; settings: MTCC 183, 24 h
Micrococcus luteus [43] = assay: Bactericidal activity against Micrococcus luteus MTCC 2470 after 24 hrs by serial dilution method; type: functional; settings: MTCC 2470, 24 h
Candida albicans [44] = assay: Antimicrobial activity against Candida albicans MTCC 3017 after 24 hrs by well diffusion method; type: functional; settings: MTCC 3017, 24 h
Candida albicans [45] = assay: Antimicrobial activity against Candida albicans MTCC 3958 after 24 hrs by well diffusion method; type: functional; settings: MTCC 3958, 24 h
[46] = Cytotoxicity against human PC3 cells; type: functional, cell-based; settings: PC-3
A549 [47] = assay: Cytotoxicity against human A549 cells; type: functional, cell-based

## O=C1C=C(N2CC2)C(=O)C(c2cc(-c3ccc(C(=O)N4CCOCC4)s3)on2)=C1N1CC1
Candida albicans [1]
  MFC: 125 µg/mL (≈ 276 µM)
Escherichia coli
  MIC: > 125 µg/mL
Candida albicans [2]
  MIC: 7.8 µg/mL (≈ 17.2 µM)
Raoultella planticola [3]
  MIC: 7.8 µg/mL (≈ 17.2 µM)
Staphylococcus aureus [4]
  IC50: 2500 nM
[5]
  IC50: 1400 nM
Candida albicans [6]
  MFC: 62.5 µg/mL (≈ 138 µM)
Candida albicans [7]
  MFC: 31.2 µg/mL (≈ 69 µM)
[Candida] aaseri [8]
  MIC: 31.2 µg/mL (≈ 69 µM)
Candida albicans [9]
  MIC: 7.8 µg/mL (≈ 17.2 µM)
Raoultella planticola [10]
  IC50: 5.1 µM
Pichia kudriavzevii [11]
  MIC: 7.8 µg/mL (≈ 17.2 µM)
Staphylococcus aureus [12]
  IC50: 1900 nM
[Candida] aaseri [13]
  MFC: 125 µg/mL (≈ 276 µM)
Candida parapsilosis [14]
  MFC: 62.5 µg/mL (≈ 138 µM)
Bacillus subtilis [15]
  IC50: 2800 nM
Pichia kudriavzevii [16]
  MFC: 15.6 µg/mL (≈ 34.5 µM)
Micrococcus luteus [17]
  MIC: 15.6 µg/mL (≈ 34.5 µM)
Candida albicans [18]
  MFC: 15.6 µg/mL (≈ 34.5 µM)
Candida albicans [19]
  MFC: 125 µg/mL (≈ 276 µM)
Candida albicans [20]
  MFC: 125 µg/mL (≈ 276 µM)
Nakaseomyces glabratus [21]
  MFC: 125 µg/mL (≈ 276 µM)
Nakaseomyces glabratus [22]
  MIC: 31.2 µg/mL (≈ 69 µM)
Candida albicans [23]
  MIC: 62.5 µg/mL (≈ 138 µM)
Candida albicans [24]
  MIC: 62.5 µg/mL (≈ 138 µM)
Candida albicans [25]
  MIC: 31.2 µg/mL (≈ 69 µM)
Raoultella planticola [26]
  MBC: 15.6 µg/mL (≈ 34.5 µM)
Candida albicans [27]
  MFC: 31.2 µg/mL (≈ 69 µM)
A549 [28]
  IC50: 1500 nM
Candida parapsilosis [29]
  MIC: 15.6 µg/mL (≈ 34.5 µM)
Candida albicans [30]
  MFC: 15.6 µg/mL (≈ 34.5 µM)
Staphylococcus aureus [31]
  MBC: 7.8 µg/mL (≈ 17.2 µM)
Pichia sporocuriosa [32]
  MIC: 15.6 µg/mL (≈ 34.5 µM)
Candida albicans [33]
  MFC: 62.5 µg/mL (≈ 138 µM)
Pichia sporocuriosa [34]
  MFC: 31.2 µg/mL (≈ 69 µM)
Bacillus subtilis [35]
  MBC: 3.9 µg/mL (≈ 8.62 µM)
Staphylococcus aureus [36]
  MIC: 3.9 µg/mL (≈ 8.62 µM)
Staphylococcus aureus [37]
  MIC: 3.9 µg/mL (≈ 8.62 µM)
Pseudomonas aeruginosa
  MIC: > 125 µg/mL
Candida albicans [38]
  MIC: 31.2 µg/mL (≈ 69 µM)
Staphylococcus aureus [39]
  MBC: 3.9 µg/mL (≈ 8.62 µM)
Bacillus subtilis [40]
  MIC: 3.9 µg/mL (≈ 8.62 µM)
Micrococcus luteus [41]
  IC50: 9.8 µM
Candida albicans [42]
  MIC: 15.6 µg/mL (≈ 34.5 µM)
Micrococcus luteus [43]
  MBC: 31.2 µg/mL (≈ 69 µM)
Candida albicans [44]
  MIC: 7.8 µg/mL (≈ 17.2 µM)
Candida albicans [45]
  MIC: 15.6 µg/mL (≈ 34.5 µM)

## COc1ccc(C[C@H](N)C(=O)N[C@H]2[C@@H](O)[C@H](n3cnc4c(N(C)C)ncnc43)O[C@@H]2CO)cc1 [PUROMYCIN]
[46]
  IC50: 700 nM
A549 [47]
  IC50: 600 nM

## CO[C@@]12[C@H](COC(N)=O)C3=C(C(=O)C(C)=C(N)C3=O)N1C[C@@H]1N[C@@H]12 [MITOMYCIN]
Escherichia coli
  MIC: 3.9 µg/mL (≈ 11.7 µM)
Raoultella planticola [3]
  MIC: 1.9 µg/mL (≈ 5.68 µM)
Staphylococcus aureus [4]
  IC50: 1100 nM
Raoultella planticola [10]
  IC50: 1.1 µM
Staphylococcus aureus [12]
  IC50: 900 nM
Bacillus subtilis [15]
  IC50: 300 nM
Micrococcus luteus [17]
  MIC: 0.9 µg/mL (≈ 2.69 µM)
Raoultella planticola [26]
  MBC: 3.9 µg/mL (≈ 11.7 µM)
Staphylococcus aureus [31]
  MBC: 3.9 µg/mL (≈ 11.7 µM)
Bacillus subtilis [35]
  MBC: 0.9 µg/mL (≈ 2.69 µM)
Staphylococcus aureus [36]
  MIC: 1.9 µg/mL (≈ 5.68 µM)
Staphylococcus aureus [37]
  MIC: 1.9 µg/mL (≈ 5.68 µM)
Pseudomonas aeruginosa
  MIC: 1.9 µg/mL (≈ 5.68 µM)
[46]
  IC50: 500 nM
A549 [47]
  IC50: 500 nM
Staphylococcus aureus [39]
  MBC: 1.9 µg/mL (≈ 5.68 µM)
Bacillus subtilis [40]
  MIC: 0.45 µg/mL (≈ 1.35 µM)
Micrococcus luteus [41]
  IC50: 0.9 µM
Micrococcus luteus [43]
  MBC: 1.9 µg/mL (≈ 5.68 µM)
Candida albicans [44]
  MIC: > 500 µg/mL
